“Also recorded” adds a separate entry of the source.

The first experiment relates to mutated ARE.
Test: not given
Conditions: not given
In kind it is cell-based.
As for 1,3-Dinitronapthalene, the “ARE-bla mutant IC50” value was “inactive”.
For `c1ccc2c(c1)-c1cccc3c1c-2cc1ccccc13` [Benzo(b)fluoranthene], the “activity in ARE-bla-mut assay (words)” value is “may exhibit autofluorescence”.
As for `C[C@H](CCC(=O)O)[C@H]1CC[C@H]2[C@@H]3CC[C@@H]4C[C@H](O)CC[C@]4(C)[C@H]3CC[C@]12C` [Lithocholic acid], the “ARE-bla mutant IC50” value is “inactive”.
With `O=c1n(CC2CO2)c(=O)n(CC2CO2)c(=O)n1CC1CO1` (stereo not drawn) [Teroxironum], the “ARE-bla mutant IC50” value is “inactive”.
As for `C/C=C1/C(=O)C[C@H]2[C@@H]3CCC4=CC(=O)CC[C@]4(C)[C@H]3CC[C@]12C` [Guggulsterones E], the “ARE-bla mutant IC50” value was “inactive”.
Take `c1ccc2cc3c(cc2c1)-c1cccc2cccc-3c12` [Benzo(k)fluoranthene]: the “activity in ARE-bla-mut assay (words)” value is reported as “may exhibit autofluorescence”.

Still in this experiment, the particulars now being: confirmation/follow-up studies, HepG2, mean ± SD.
Take `CCc1cccc(CC)c1N(COC)C(=O)CCl` [Alachlor]: the “ARE-bla mutant IC50” value was “inactive”.
As to `CCN(CC)c1ccc(N)cc1` [N,N-Diethyl-p-phenylenediamine], the “ARE-bla mutant IC50” value is “inactive”.
In the case of `ClC(Cl)=C(c1ccc(Cl)cc1)c1ccc(Cl)cc1` [p,p' -DDE, Dichlorodiphenyl dichloroethylene], the “ARE-bla mutant IC50” value was “inactive”.
On the same count and under the same terms, the entry for `C[C@H](CCC(=O)[O-])[C@H]1CC[C@H]2[C@@H]3[C@H](O)C[C@@H]4C[C@H](O)CC[C@]4(C)[C@H]3C[C@H](O)[C@]12C.[Na+]` [Sodium Cholate] is “inactive”; for `C=CC(=O)OCCOCCOCCOCCOC(=O)C=C` [Tetraethylene glycol diacrylate] it is “inactive”.

Still in this experiment, the particulars now being: confirmation/follow-up studies; normalized to DMSO (0%) and ARE-bla maximal β-napthoflavone response (100%).
Regarding `c1ccc2c(c1)-c1cccc3c1c-2cc1ccccc13` [Benzo(b)fluoranthene], the “ARE-bla mutant Efficacy” value turned out to be 134%.
For the molecule `c1ccc2cc3c(cc2c1)-c1cccc2cccc-3c12` [Benzo(k)fluoranthene], the “ARE-bla mutant Efficacy” value was found to be 160%.

The test system of a further experiment is Nrf2-dependent ARE transcriptional activity. Nature of the experiment: ARE-luc luciferase reporter gene assay in HepG2 cells (qHTS). The class given is cell-based.
Conditions: not given
As for 1,3-Dinitronapthalene, the “ARE-luc Efficacy” value was 180%.
As to `O=c1n(CC2CO2)c(=O)n(CC2CO2)c(=O)n1CC1CO1` (stereo not drawn) [Teroxironum], the “ARE-luc Efficacy” value worked out at 1541.
`C/C=C1/C(=O)C[C@H]2[C@@H]3CCC4=CC(=O)CC[C@]4(C)[C@H]3CC[C@]12C` [Guggulsterones E]: the “ARE-luc Efficacy” value was 115.

Still in this experiment, the particulars now being: Homo sapiens, HepG2, confirmation/follow-up studies; activation of ARE reporter as % of positive control (β-napthoflavone); read-out: ARE-luc Efficacy.
Take `CCc1cccc(CC)c1N(COC)C(=O)CCl` [Alachlor]: the Emax worked out at 127%.
As for `C=CC(=O)OCCOCCOCCOCCOC(=O)C=C` [Tetraethylene glycol diacrylate], the Emax amounted to 288%.
`C[C@H](CCC(=O)O)[C@H]1CC[C@H]2[C@@H]3CC[C@@H]4C[C@H](O)CC[C@]4(C)[C@H]3CC[C@]12C` [Lithocholic acid]: the Emax stood at 61%.

The experiment is the same for the next values; noted with them: Homo sapiens, HepG2; confirmation/follow-up studies; […]; read-out: ARE-luc Efficacy.
In the case of `c1ccc2c(c1)-c1cccc3c1c-2cc1ccccc13` [Benzo(b)fluoranthene], the Emax is 19%.
For the molecule `c1ccc2cc3c(cc2c1)-c1cccc2cccc-3c12` [Benzo(k)fluoranthene], the Emax was determined as 103%.

The experiment is the same for the next values; noted with them: Homo sapiens; confirmation/follow-up studies, HepG2, 16 hr exposure, mean ± SD; read-out: ARE-luc EC50.
As usually defined, the EC50 is the concentration that produces a half-maximal response. On to `CCc1cccc(CC)c1N(COC)C(=O)CCl` [Alachlor], for which the EC50 is 19.9 ± 7.1 µM.
The same measure, in the same setting: the figure for `c1ccc2c(c1)-c1cccc3c1c-2cc1ccccc13` [Benzo(b)fluoranthene] is 1.3 ± 1 µM.
On the same count and under the same terms, the figure for `C=CC(=O)OCCOCCOCCOCCOC(=O)C=C` [Tetraethylene glycol diacrylate] is 29.2 ± 2 µM.
In the case of `C[C@H](CCC(=O)O)[C@H]1CC[C@H]2[C@@H]3CC[C@@H]4C[C@H](O)CC[C@]4(C)[C@H]3CC[C@]12C` [Lithocholic acid], the EC50 worked out at 21.9 ± 8.2 µM.
`c1ccc2cc3c(cc2c1)-c1cccc2cccc-3c12` [Benzo(k)fluoranthene]: the EC50 turned out to be 4.9 ± 2.2 µM.

The same experiment, now with this note: confirmation/follow-up studies, HepG2, 16 hr exposure, mean ± SD.
As to `CCN(CC)c1ccc(N)cc1` [N,N-Diethyl-p-phenylenediamine], the “ARE-luc EC50” value was “inactive”.
Consider `ClC(Cl)=C(c1ccc(Cl)cc1)c1ccc(Cl)cc1` [p,p' -DDE, Dichlorodiphenyl dichloroethylene], for which the “ARE-luc EC50” value was “inactive”.
Turning to `C[C@H](CCC(=O)[O-])[C@H]1CC[C@H]2[C@@H]3[C@H](O)C[C@@H]4C[C@H](O)CC[C@]4(C)[C@H]3C[C@H](O)[C@]12C.[Na+]` [Sodium Cholate], the “ARE-luc EC50” value is “inactive”.

Staying with this experiment, now noted: follow-up studies, up to 46 µM.
With `CCc1cccc(CC)c1N(COC)C(=O)CCl` [Alachlor], the “activity in ARE-luc assay (words)” value is on record as “active; also recorded: demonstrated activity”.
Still for that read-out and setting: with `C[C@H](CCC(=O)O)[C@H]1CC[C@H]2[C@@H]3CC[C@@H]4C[C@H](O)CC[C@]4(C)[C@H]3CC[C@]12C` [Lithocholic acid] the entry was “active”.

Still in this experiment, the particulars now being: primary qHTS screening, 0.59 nM to 92 µM.
Consider `C[C@H](CCC(=O)O)[C@H]1CC[C@H]2[C@@H]3CC[C@@H]4C[C@H](O)CC[C@]4(C)[C@H]3CC[C@]12C` [Lithocholic acid], for which the “activity in ARE-luc assay (words)” value was “inactive”.

Still in this experiment, the particulars now being: read-out: ARE-luc EC50.
As to 1,3-Dinitronapthalene, the EC50 came to 16.2 ± 11 µM.
Turning to `O=c1n(CC2CO2)c(=O)n(CC2CO2)c(=O)n1CC1CO1` (stereo not drawn) [Teroxironum], the EC50 was determined as 27.1 ± 1.8 µM.
In the case of `C/C=C1/C(=O)C[C@H]2[C@@H]3CCC4=CC(=O)CC[C@]4(C)[C@H]3CC[C@]12C` [Guggulsterones E], the EC50 came out at 15.4 ± 2.6 µM.

In a further experiment the test system is olfactory mucosa.
Test: not given
On the set-up: method as in Genter et al. 2002. To be noted: olfactory mucosa of treated rats; ref Genter et al. 2002; cited from earlier work.
As for `CCc1cccc(CC)c1N(COC)C(=O)CCl` [Alachlor], the “genes associated with the generation of ROS and resulting oxidative damage” value was “up-regulation”.

The test system of another experiment is antioxidant response element (ARE) signaling pathway. Nature of the experiment: ARE-bla β-lactamase reporter gene assay in HepG2 cells (qHTS). In kind it is cell-based, human.
Conditions: not given
Background: Reporter assays use an easily measured gene product as a stand-in for the process of interest.
Take 1,3-Dinitronapthalene: the “ARE-bla Efficacy” value was found to be 80%.
In the case of `O=c1n(CC2CO2)c(=O)n(CC2CO2)c(=O)n1CC1CO1` (stereo not drawn) [Teroxironum], the “ARE-bla Efficacy” value is recorded as 119.
Take `C/C=C1/C(=O)C[C@H]2[C@@H]3CCC4=CC(=O)CC[C@]4(C)[C@H]3CC[C@]12C` [Guggulsterones E]: the “ARE-bla Efficacy” value is 106.

The same experiment, now with this note: Homo sapiens, HepG2, confirmation/follow-up studies; activation of ARE reporter as % of positive control (β-napthoflavone); read-out: ARE-bla Efficacy.
Take `CCc1cccc(CC)c1N(COC)C(=O)CCl` [Alachlor]: the Emax amounted to 106%.
For `C=CC(=O)OCCOCCOCCOCCOC(=O)C=C` [Tetraethylene glycol diacrylate], the Emax came out at 53%.
On to `C[C@H](CCC(=O)O)[C@H]1CC[C@H]2[C@@H]3CC[C@@H]4C[C@H](O)CC[C@]4(C)[C@H]3CC[C@]12C` [Lithocholic acid], for which the Emax turned out to be 65%.

Still in this experiment, the particulars now being: Homo sapiens, HepG2; confirmation/follow-up studies; […]; read-out: ARE-bla Efficacy.
As to `c1ccc2c(c1)-c1cccc3c1c-2cc1ccccc13` [Benzo(b)fluoranthene], the Emax worked out at 136%.
As for `c1ccc2cc3c(cc2c1)-c1cccc2cccc-3c12` [Benzo(k)fluoranthene], the Emax is 114%.

The same experiment, now with this note: Homo sapiens; confirmation/follow-up studies, HepG2, 16 hr exposure, mean ± SD; read-out: ARE-bla EC50.
In the case of `CCc1cccc(CC)c1N(COC)C(=O)CCl` [Alachlor], the EC50 was determined as 5.9 ± 1.7 µM.
On to `c1ccc2c(c1)-c1cccc3c1c-2cc1ccccc13` [Benzo(b)fluoranthene], for which the EC50 was determined as 5.9 ± 3 µM.
On to `C=CC(=O)OCCOCCOCCOCCOC(=O)C=C` [Tetraethylene glycol diacrylate], for which the EC50 turned out to be 9.5 ± 4.8 µM.
As for `C[C@H](CCC(=O)O)[C@H]1CC[C@H]2[C@@H]3CC[C@@H]4C[C@H](O)CC[C@]4(C)[C@H]3CC[C@]12C` [Lithocholic acid], the EC50 stood at 17.7 ± 5.7 µM.
As to `c1ccc2cc3c(cc2c1)-c1cccc2cccc-3c12` [Benzo(k)fluoranthene], the EC50 turned out to be 1.6 ± 0.7 µM.

The experiment is the same for the next values; noted with them: confirmation/follow-up studies, HepG2, 16 hr exposure, mean ± SD.
As to `ClC(Cl)=C(c1ccc(Cl)cc1)c1ccc(Cl)cc1` [p,p' -DDE, Dichlorodiphenyl dichloroethylene], the “ARE-bla EC50” value was “inactive”.
As for `C[C@H](CCC(=O)[O-])[C@H]1CC[C@H]2[C@@H]3[C@H](O)C[C@@H]4C[C@H](O)CC[C@]4(C)[C@H]3C[C@H](O)[C@]12C.[Na+]` [Sodium Cholate], the “ARE-bla EC50” value is “inactive”.

The experiment is the same for the next values; noted with them: confirmation/follow-up studies, HepG2, 16 hr exposure, mean ± SD; read-out: ARE-bla EC50.
As to `CCN(CC)c1ccc(N)cc1` [N,N-Diethyl-p-phenylenediamine], the EC50 was 18.7 ± 7.6 µM.

The same experiment, now with this note: confirmation/follow-up studies; […].
On to `CCN(CC)c1ccc(N)cc1` [N,N-Diethyl-p-phenylenediamine], for which the “ARE-bla Efficacy” value is 60%.

Still in this experiment, the particulars now being: follow-up studies, up to 46 µM.
Take `CCc1cccc(CC)c1N(COC)C(=O)CCl` [Alachlor]: the “activity in ARE-bla assay (words)” value was “active; also recorded: demonstrated activity”.

The same experiment, now with this note: read-out: ARE-bla EC50.
Consider 1,3-Dinitronapthalene, for which the EC50 was found to be 1.2 ± 0.2 µM.
As for `O=c1n(CC2CO2)c(=O)n(CC2CO2)c(=O)n1CC1CO1` (stereo not drawn) [Teroxironum], the EC50 turned out to be 5.9 ± 1.9 µM.
As to `C/C=C1/C(=O)C[C@H]2[C@@H]3CCC4=CC(=O)CC[C@]4(C)[C@H]3CC[C@]12C` [Guggulsterones E], the EC50 is 5 ± 3.1 µM.

(Values after article PMC3440086, “Profiling Environmental Chemicals for Activity in the Antioxidant Response Element Signaling Pathway Using a High Throughput Screening Approach” (Environmental Health Perspectives, 2012).)
